From PubChem BioAssay (NCI)
Values joined by “and” are separate entries in the source; they are usually repeats but may differ in a detail not shown here. Equal values may be shown once.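 These data come from cells grown in 96-well plates and exposed to compound for 48 hours at five concentrations. At the GI50, growth is halved. TGI: total growth inhibition.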

Experiments:
Assay in all cases: NCI-60 cell line screen, 48 h
HCC-2998 colon = system: HCC-2998 colon
HCT-15 colon = system: HCT-15 colon
HL-60(TB) leukemia = system: HL-60(TB) leukemia
HS 578T breast = system: HS 578T breast
HT29 colon = system: HT29 colon
KM12 colon = system: KM12 colon
SF-539 CNS = system: SF-539 CNS
SN12C renal = system: SN12C renal
UACC-257 melanoma = system: UACC-257 melanoma
HOP-92 NSCLC = system: HOP-92 NSCLC

Row | SMILES | GI50 (HCC-2998 colon) | TGI (HCC-2998 colon) | GI50 (HCT-15 colon) | TGI (HCT-15 colon) | GI50 (HL-60(TB) leukemia) | TGI (HL-60(TB) leukemia) | GI50 (HS 578T breast) | TGI (HS 578T breast) | GI50 (HT29 colon) | TGI (HT29 colon) | GI50 (KM12 colon) | TGI (KM12 colon) | GI50 (SF-539 CNS) | TGI (SF-539 CNS) | GI50 (SN12C renal) | TGI (SN12C renal) | GI50 (UACC-257 melanoma) | TGI (UACC-257 melanoma) | TGI (HOP-92 NSCLC) | GI50 (HOP-92 NSCLC)
1 | CO/N=C(/COc1c(-c2ccccc2)oc2ccccc2c1=O)c1ccc(F)cc1 | > 100 µM | > 100 µM | > 100 µM | > 100 µM | > 100 µM | > 100 µM | 30.2 µM | > 100 µM | > 100 µM | > 100 µM | > 100 µM | > 100 µM | 85.6 µM | > 100 µM | 35.1 µM | > 100 µM | > 100 µM | > 100 µM |  | 
2 | NC1=C(Cl)C(=O)c2ccccc2C1=O |  | 24.4 µM |  | 12.2 µM |  | 45.4 µM |  |  |  | 30.4 µM |  | 25.7 µM |  | 20.8 µM |  | 15.9 µM |  | 8.38 µM | 33.7 µM | 
3 | CN1C(=O)C(c2c[nH]c3ccccc23)=C(c2c(-c3c[nH]c4ccccc34)[nH]c3ccccc23)C1=O |  |  | 3.24 µM | 12.3 µM | 2.41 µM | 8.21 µM | 3 µM | 13.6 µM | 2.73 µM | 8.36 µM | 2.13 µM | 7.61 µM | 1.81 µM | 3.67 µM | 2.64 µM |  | 3.59 µM | 13.2 µM |  | 
4 | Cn1c(=O)oc2cc(C3CCC(=O)N3Cc3ccc(Cl)cc3)ccc21 (centres undefined) |  | > 100 µM |  | > 100 µM |  | > 100 µM |  |  |  | > 100 µM |  | > 100 µM |  | > 100 µM |  | > 100 µM |  | > 100 µM |  | 
5 | Cc1cc2c(cc1Br)C1(C)CCC(C)C1(C)O2 (centres undefined) |  | > 100 µM |  | > 100 µM |  | 34.1 µM |  |  |  | > 100 µM |  | > 100 µM |  | > 100 µM |  | 80.9 µM |  | 98.8 µM | 53.7 µM | 
6 | COc1ccc(-c2csc3c2-n2cccc2C3=O)cc1O | 0.454 µM | 8.71 µM | < 0.0132 µM | > 100 µM | 0.0163 µM | 0.0955 µM | < 0.0165 µM | > 100 µM | 3.68 µM | > 78.1 µM | 0.0653 µM | > 100 µM | 0.0226 µM | > 100 µM | 0.0365 µM | > 100 µM | 1.36 µM | > 100 µM |  | 
7 | CNC(=O)OCc1[nH]ccc2c(C)c3nc4ccc(OC)cc4c3cc12 |  | > 53.5 µM |  | > 21.9 µM |  | 19 µM |  |  |  | > 100 µM |  | > 23.9 µM |  | > 31.8 µM |  | > 100 µM |  | > 100 µM | > 100 µM | 
8 | O=C(O)CCCNS(=O)(=O)c1ccc2ccccc2c1 |  | > 100 µM |  | > 100 µM |  | > 100 µM |  |  |  | > 100 µM |  | > 100 µM |  | > 100 µM |  | > 100 µM |  | > 100 µM | > 100 µM | 
9 | CC(=O)O[C@H]1CC[C@@]2(C)C(=CC[C@@H]3C2CC[C@]2(C)Nc4[nH]ncc4CC32)C1 (some centres undefined) |  | > 100 µM |  | 32.8 µM |  | 53.5 µM |  |  |  | 30.6 µM |  | 31.1 µM |  | 40.4 µM |  |  |  | 30.8 µM |  | 
10 | CC(=O)OC12CC(C)C3(O)C4C=C(C)C(=O)[C@@]4(O)CC(CO)=C[C@H]3C1C2(C)C (some centres undefined) | 2.35 µM |  | > 1000 µM | > 1000 µM | 0.432 µM and 0.751 µM | > 1000 µM |  |  | > 1000 µM | > 1000 µM | > 1000 µM | > 1000 µM | > 1000 µM | > 1000 µM |  |  | > 1000 µM | > 1000 µM | > 1000 µM | 45.4 µM
11 | CN(CCN(C)C(=O)CCOS(C)(=O)=O)C(=O)CCOS(C)(=O)=O |  | > 100 µM |  | > 100 µM |  | > 100 µM |  |  |  | > 100 µM |  | > 100 µM |  | > 100 µM |  | > 100 µM |  | > 100 µM | > 100 µM | 
12 | CCOC(=O)c1cnc2cc3cccccc3n2c1=O |  | > 100 µM |  | > 100 µM |  | > 100 µM |  |  |  | > 100 µM |  | > 100 µM |  | > 100 µM |  | > 100 µM |  | > 100 µM |  | 
13 | Clc1cc(Cl)cc(Nc2nc3ccccc3nc2-c2cccs2)c1 |  | > 100 µM |  | > 100 µM |  | > 100 µM |  |  |  | 26.9 µM |  |  |  | > 100 µM |  | > 100 µM |  | 60.4 µM | 38.1 µM | 
14 | Oc1ccc(CN(Cc2ccc(C(F)(F)F)cc2)Cc2ccc(O)c3ncccc23)c2cccnc12 | 0.0496 µM | > 100 µM | 0.024 µM | > 100 µM | 0.0239 µM |  | 0.0438 µM | > 100 µM | 0.0717 µM | > 100 µM | 0.0415 µM | > 100 µM | 0.0465 µM | > 64.1 µM | 0.0201 µM | > 100 µM |  |  |  | 
15 | COc1ccc2c(c1)CCCC1C3=NCCC3(C)CSC21 (centres undefined) |  |  |  |  |  | 44.7 µM |  |  |  | > 100 µM |  | > 100 µM |  | > 100 µM |  | > 100 µM |  |  |  | 
16 | CCCCCCCCCCCCCCCCn1cc[n+](Cc2ccccc2)c1C | 0.413 µM | 1.64 µM |  |  | 0.0496 µM | 2.06 µM | 3.62 µM | > 100 µM | 0.297 µM | 1.08 µM | 1.36 µM and 0.176 µM | 2.87 µM and 0.407 µM | 1.67 µM | 4.36 µM | 1.07 µM and 0.156 µM | 2.34 µM and 1.17 µM | 1.27 µM | 11.2 µM |  | 
17 | O=CN1CCN(C=S)CC1 |  | > 100 µM |  | > 100 µM |  | > 100 µM |  |  |  | > 100 µM |  | > 100 µM |  | > 100 µM |  | > 100 µM |  | > 100 µM | > 100 µM | 
18 | NC(=O)c1c2c(cc3c(=O)c4ccccc4[nH]c13)CCCC2 |  | > 100 µM |  | > 100 µM |  | > 100 µM |  |  |  | > 100 µM |  | > 100 µM |  | > 100 µM |  | > 100 µM |  | > 100 µM | > 100 µM | 
19 | COc1cc2c3c(n(CCCNCCNCCCN)c(=O)c2cc1OC)-c1cc2c(cc1C3=O)OCO2 |  |  | 2.24 µM | 20 µM | 6.11 µM | 51.7 µM | 1.38 µM | 7.93 µM | 2.03 µM | 10.2 µM | 2.61 µM | 14.5 µM | 8.55 µM | 23.6 µM | 1.66 µM | 7.17 µM | 9.51 µM | 30.9 µM | 72.2 µM | 21 µM
20 | CC1CC2(CCC1OCc1ccccc1)OCCO2 (centres undefined) |  | > 100 µM |  | > 100 µM |  | > 100 µM |  |  |  | > 100 µM |  | > 100 µM |  | > 100 µM |  | > 100 µM |  | > 100 µM | > 100 µM | 
21 | O=[N+]([O-])c1ccc(N=Nc2c(O)[nH]c3ccccc23)cc1 |  | > 100 µM |  | > 100 µM |  | > 77.8 µM |  | 51.6 µM |  | > 100 µM |  | > 100 µM |  | 9.36 µM |  | > 100 µM |  | > 60.1 µM |  | 
22 | NC1=NC(c2ccc(F)cc2)C2=C(N1)c1ccc3ccccc3c1OCC2 (centres undefined) |  |  | 3.25 µM | > 100 µM | > 100 µM | > 100 µM | 11.4 µM | > 100 µM | 4.96 µM | > 100 µM | 4.45 µM | > 100 µM | 0.343 µM | 2.45 µM | 22.2 µM | > 100 µM | 34.2 µM | > 100 µM | > 100 µM | 36.3 µM
23 | CC1=CC2CC(C)C1(C)CCc1ccoc12 (centres undefined) |  | > 100 µM |  | > 100 µM |  | > 100 µM |  |  |  | > 100 µM |  | > 100 µM |  | > 100 µM |  | > 100 µM |  | > 100 µM | > 100 µM | 
24 | OCc1ccc(Oc2c3ccccc3nc3occc23)cc1 |  |  | 19.4 µM | 47.3 µM | 27.2 µM | 79.6 µM | 54.8 µM | > 100 µM | 28.6 µM | > 100 µM | 17.8 µM | 37.8 µM | 28.9 µM | 71 µM | 24.5 µM | 62.3 µM | 30 µM | 74.7 µM |  | 
25 | COC(=O)C1=Cc2c(cc(OC)c(OC)c2OC)[C@H](c2ccc(OC)c(OC)c2OC)C1C(=O)OC (some centres undefined) |  | > 100 µM |  | > 100 µM |  | > 100 µM |  |  |  | > 100 µM |  | > 100 µM |  | > 100 µM |  | > 100 µM |  | > 100 µM | > 100 µM | 
26 | Cc1c(O)c(=O)ccn1CCO |  |  |  | > 100 µM |  | > 100 µM |  |  |  | > 100 µM |  | > 100 µM |  |  |  | > 100 µM |  | > 100 µM | > 100 µM | 
27 | COc1ccccc1NC(=O)C1=C(C)NC(C)=C(C(=O)Nc2ccccc2OC)C1c1cccc2c1OCO2 |  | > 100 µM |  | > 100 µM |  | > 100 µM |  |  |  | > 100 µM |  | > 100 µM |  | > 100 µM |  | > 100 µM |  | > 100 µM | > 100 µM | 
28 | CN(C)S(=O)(=O)c1ccc(Nc2ccc(O)c3c2C(=O)c2c([N+](=O)[O-])ccc(O)c2C3=O)cc1 |  |  |  | > 100 µM |  | > 100 µM |  | > 100 µM |  | > 100 µM |  | > 100 µM |  |  |  | > 100 µM |  | > 100 µM | > 100 µM | 
29 | CCOC(=O)C(=O)Nc1ccc(Cl)c(C(F)(F)F)c1 |  | > 100 µM |  | > 100 µM |  | > 100 µM |  |  |  | > 100 µM |  |  |  | > 100 µM |  | > 100 µM |  | > 100 µM |  | 
30 | CC1(C)N[P+]2(Nc3ccccc3O2)OC1=O (centres undefined) |  | > 100 µM |  | > 100 µM |  | > 100 µM |  | > 100 µM |  | > 100 µM |  | > 100 µM |  | > 100 µM |  | > 100 µM |  | > 100 µM |  | 
